Data: PMC9298186, “Thiamine analogues as inhibitors of pyruvate dehydrogenase and discovery of a thiamine analogue with non-thiamine related antiplasmodial activity” (RSC Medicinal Chemistry, 2022)
Like-named read-outs stand apart in the source and are kept apart here.

How the values were obtained:
porcine PDHc E1 [1] = target: T1, porcine PDHc E1 (Sus scrofa, UniProt F1SGH5+P29804); experiment: Porcine PDHc-E1 inhibition, DCPIP reduction assay; type: biochemical; settings: for inhibition at 50 µM: read-out: Inhibition (%) of PDH E1; for inhibition at 100 µM: read-out: Inhibition (%) of PDH E1 at [TPP] = 100 μM
T1 sequence (P29804 31-390): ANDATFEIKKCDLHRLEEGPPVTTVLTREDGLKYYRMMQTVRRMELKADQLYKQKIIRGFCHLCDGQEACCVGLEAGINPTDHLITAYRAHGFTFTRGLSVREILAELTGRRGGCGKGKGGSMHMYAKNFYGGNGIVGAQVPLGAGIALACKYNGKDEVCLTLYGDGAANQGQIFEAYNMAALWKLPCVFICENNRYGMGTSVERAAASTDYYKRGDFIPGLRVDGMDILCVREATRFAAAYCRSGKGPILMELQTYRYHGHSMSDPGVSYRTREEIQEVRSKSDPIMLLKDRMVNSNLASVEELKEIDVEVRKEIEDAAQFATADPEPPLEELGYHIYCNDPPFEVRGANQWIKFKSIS
T1 sequence (F1SGH5 32-360): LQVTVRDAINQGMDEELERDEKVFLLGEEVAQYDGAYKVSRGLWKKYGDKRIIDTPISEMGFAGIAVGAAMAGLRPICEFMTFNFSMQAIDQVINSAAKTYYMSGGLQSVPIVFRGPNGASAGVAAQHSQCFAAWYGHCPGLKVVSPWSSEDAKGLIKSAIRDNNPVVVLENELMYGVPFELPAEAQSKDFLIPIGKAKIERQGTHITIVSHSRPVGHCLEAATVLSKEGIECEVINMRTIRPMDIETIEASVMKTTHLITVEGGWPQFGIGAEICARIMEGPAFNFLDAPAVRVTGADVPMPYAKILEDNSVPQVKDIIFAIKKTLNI

[2] = tested on: Zymomonas mobilis pyruvate decarboxylase (zmPDC); set-up: method as in PMID 19082157; settings: cited from earlier work
porcine PDHc E1 [3] = target: T1, porcine PDHc E1; experiment: Porcine PDHc-E1 inhibition, DCPIP reduction assay; type: biochemical; settings: for IC50: [TPP] = 10 μM, mean ± SEM, read-out: IC50 PDH E1; for Ki: read-out: Ki PDH E1
[4] = tested on: P. falciparum 3D7 (chloroquine-sensitive) strain; experiment: In vitro antiplasmodial activity assay (SYBR-Safe; malstat for 15); type: cell-based, Plasmodium falciparum; settings: for IC50: Plasmodium falciparum; for Effect of changing folic acid concentration on parasite sensitivity: […] versus 220 μM folic acid in medium
[5] = tested on: human foreskin fibroblast (HFF) cells; type: cell-based; settings: for Cytotoxicity: human, 96 h; for Selectivity index: HFF cytotoxicity versus antiplasmodial IC50
Description: Cytotoxicity evaluation of selected compounds
Cytotoxicity testing of selected compounds was conducted using HFF cells (human foreskin fibroblasts) as described by Howieson et al. with some modifications.10 Briefly, the HFF cells were seeded in 96- […]
Cycloheximide (10 µM; a protein synthesis inhibitor) was used as a control to indicate complete inhibition of HFF cell proliferation. Plates were […]
A sample of the supernatant
(150 µL) was then carefully aspirated from each well and discarded. The plates were then stored at - 80 °C. SYBR-Safe assay was used to measure cell proliferation. Briefly, the plates were thawed, SYBR-Safe lysis solution (150 µL) was added to each well and mixed via pipetting to ensure the HFF cells were detached from the plate and lysed. The plates were then processed as described for the […]
Fig. S7. […] Data are averaged […]
from three independent experiments, each carried out in triplicate. Error bars represent SEM and, where not visible, are smaller than the symbols. […]
10Howieson, V.M.; Tran, E.; Hoegl, A.; Fam, H.L.; Fu, J.; Sivonen, K.; Li, X.X.; Auclair, K.; Saliba, K.J. Triazole substitution of a labile amide bond […]

[6] = tested on: P. falciparum 3D7 parasites expressing PfTPK-GFP; experiment: Antiplasmodial activity against parasites overexpressing PfTPK-GFP; type: cell-based, Plasmodium falciparum; settings: versus mock and wild-type parasites; presence or absence of thiamine (2.97 μM)
P. falciparum = tested on: P. falciparum; set-up: method as in earlier work; settings: ChEMBL; read-out: IC50 against P. falciparum; cited from earlier work
[7] = target: pig heart pyruvate dehydrogenase; set-up: method as in PMID 183746; settings: read-out: KD for TPP in pig heart pyruvate dehydrogenase; cited from earlier work
[8] = 3D7, read-out: Antiplasmodial IC50, 2.97 μM thiamine
[9] = 3D7, read-out: Antiplasmodial IC50, 297 μM thiamine
[10] = 3D7, read-out: Antiplasmodial IC50, thiamine free
[11] = 3D7, medium with 2.97 μM thiamine, ± SEM, read-out: Antiplasmodial IC50, 2.97 μM thiamine
[12] = 3D7, medium with 297 μM thiamine, ± SEM, read-out: Antiplasmodial IC50, 297 μM thiamine
[13] = 3D7, thiamine-free medium, ± SEM, three independent experiments, read-out: Antiplasmodial IC50, thiamine free

| Structure (SMILES) | inhibition at 50 µM (porcine PDHc E1 [1]) | inhibition at 100 µM (porcine PDHc E1 [1]) | IC50 [4, 11] | IC50 [4, 12] | IC50 [4, 13] | further results |
| --- | --- | --- | --- | --- | --- | --- |
| Cc1ncc(Cn2cc(CCO)nn2)c(N)n1 [Compound 6, reference compound] | 60 ± 7% | 35 ± 6% | – | – | – | Binding to zmPDC, times weaker than TPP [2]: about 1000 times |
| Cc1ncc(Cn2cc(CCOP(=O)(O)OP(=O)(O)O)nn2)c(N)n1 [Compound 7] | – | – | – | – | – | Binding to zmPDC, times tighter than TPP [2]: about 10 000 times |
| Cc1ncc(Cn2cc(CCOC(=O)c3ccccc3)nn2)c(N)n1 [Compound 12a] | 72 ± 3% | 44 ± 4% | – | – | – | IC50 (porcine PDHc E1 [3]): 20 ± 3 µM; Ki (porcine PDHc E1 [3]): 100 ± 15 nM; IC50 [4, 8]: 136 ± 18 µM; IC50 [4, 9]: > 200 µM; IC50 [4, 10]: 128 ± 13 µM; Cytotoxicity [5]: >200 µM; Effect of PfTPK overexpression on parasite sensitivity [6]: no effect |
| Cc1ncc(Cn2cc(CCOC(=O)c3ccc(Cl)cc3)nn2)c(N)n1 [Compound 12b] | 81 ± 2% | 56 ± 3% | – | – | – | IC50 [4, 8]: 125 ± 22 µM; IC50 [4, 9]: 122 ± 6 µM; IC50 [4, 10]: 107 ± 16 µM |
| Cc1ncc(Cn2cc(CCOC(=O)c3cccc(Cl)c3)nn2)c(N)n1 [Compound 12c] | 72 ± 3% | 48 ± 3% | 62 ± 17 µM | 79 ± 5 µM | 63 ± 15 µM | Selectivity index [5]: >3.2; Cytotoxicity [5]: >200 µM; Effect of PfTPK overexpression on parasite sensitivity [6]: no effect |
| Cc1ncc(Cn2cc(CCOC(=O)c3ccccc3Cl)nn2)c(N)n1 [Compound 12d] | 61 ± 3% | 38 ± 3% | 347 ± 20 µM | 343 ± 33 µM | 339 ± 31 µM | melting point: 184 to 185 °C |
| Cc1ncc(Cn2cc(CCOC(=O)c3ccc(Br)cc3)nn2)c(N)n1 [Compound 12e] | 73 ± 2% | 46 ± 5% | 85 ± 4 µM | 82 ± 8 µM | 75 ± 6 µM | – |
| Cc1ncc(Cn2cc(CCOC(=O)c3ccc([N+](=O)[O-])cc3)nn2)c(N)n1 [Compound 12f] | 55 ± 5% | 40 ± 8% | > 25 µM | > 25 µM | > 25 µM | – |
| Cc1ncc(Cn2cc(CCOC(=O)c3cccc([N+](=O)[O-])c3)nn2)c(N)n1 [Compound 12g] | 56 ± 5% | 38 ± 5% | – | – | – | IC50 (porcine PDHc E1 [3]): 36 ± 4 µM; Ki (porcine PDHc E1 [3]): 182 ± 20 nM; IC50 [4, 8]: 139 ± 9 µM; IC50 [4, 9]: 143 ± 10 µM; IC50 [4, 10]: 135 ± 15 µM; melting point: 188 to 189 °C |
| Cc1ncc(Cn2cc(CCOc3ccc([N+](=O)[O-])cc3)nn2)c(N)n1 [Compound 13a] | 75 ± 3% | 53 ± 4% | > 200 µM | > 200 µM | 168 ± 26 µM | – |
| Cc1ncc(Cn2cc(CCO)nn2)c(NCc2ccc(Br)cc2)n1 [Compound 15] | 0% | – | 2.3 ± 0.1 µM | 2.7 ± 0.01 µM | 2.2 ± 0.2 µM | Inhibitory activity against porcine PDHc E1 (porcine PDHc E1 [3]): none; IC50 ([4]; 3D7, read-out: Antiplasmodial IC50 (text, thiamine concentration not specified)): ~2 µM; Effect of changing folic acid concentration on parasite sensitivity [4]: no difference; Selectivity index [5]: 45; Cytotoxicity [5]: 98 ± 7 µM; Effect of PfTPK overexpression on parasite sensitivity [6]: no effect |
| C=CCc1cnc(C)nc1NCc1ccccc1 [Compound 16] | – | – | – | – | – | IC50 (P. falciparum): 18.5 µM |
| Cc1ncc(C[n+]2csc(CCO[P@](=O)(O)OP(=O)(O)O)c2C)c(N)n1 [TPP, thiamine pyrophosphate] | – | – | – | – | – | Kd ([2]; read-out: KD of TPP, zmPDC): ~350 nM; Kd [7]: 50 ± 10 nM |
| Cc1ncc(C[n+]2csc(CCO)c2C)c(O)n1 [oxythiamine, reference compound] | – | – | – | – | – | Effect of PfTPK overexpression on parasite sensitivity [6]: increased the sensitivity |
| COc1ncnc(NS(=O)(=O)c2ccc(N)cc2)c1OC [sulfadoxine, reference compound] | – | – | – | – | – | Effect of changing folic acid concentration on parasite sensitivity [4]: diminished |
